Reference: PubChem BioAssay AID1549 (Sanford-Burnham Center for Chemical Genomics, 2009)
The source made the active and inactive calls. No rule for the calls is given here.

What follows are compounds tested against Influenza A virus M2 proton channel (A/TW/4845/1999 H1N1) (assay: NMR binding screen, influenza A virus M2 proton channel, Kd (AID 1549)). Conditions: M2 protein.
In the case of CSc1ncc(C(=O)O)n1Cc1ccccc1, the Kd is reported as > 4 mM (inactive).
For C=CCSCC=C, the Kd was > 4 mM (inactive).
With CCOC(=O)c1c(-c2ccncc2)csc1N the Kd was > 4 mM (inactive).
In the case of CC1=NN(c2ccc(N)cc2)C(=O)C1, the Kd is reported as > 4 mM (inactive).
With O=C(Nn1cnnc1)c1csc2ccccc12 the Kd was > 4 mM (inactive).
With CC(=O)NCc1nc2ccccc2[nH]1 the Kd was > 4 mM (inactive).
CCCc1ncc(C(O)c2cccc3ccccc23)n1C (stereo not given) was tested, and the Kd was > 4 mM (inactive).
In the case of C=CCn1c(-c2ccc(O)cc2)n[nH]c1=S, the Kd is reported as > 4 mM (inactive).
With Nc1nnc(SCc2ccc(F)cc2)s1 the Kd was > 4 mM (inactive).
In the case of CCC(=O)NC(=S)Nc1ccc(N2CCOCC2)cc1, the Kd is reported as > 4 mM (inactive).
In the case of Nc1ncnc2nc(SCCN3CCCCC3)[nH]c12, the Kd is reported as > 4 mM (inactive).
COC(=O)c1cc(C)on1 was tested, and the Kd was > 4 mM (inactive).
c1ccc(-n2nnnc2Oc2cccc3cccnc23)cc1 was tested, and the Kd was > 4 mM (inactive).
In the case of Cc1ccc(/C=C2/C(=O)N=C(N)N2C)s1, the Kd is reported as > 4 mM (inactive).
In the case of CN(C)N1C(=O)C2CCCCC2C1=O (stereo not given), the Kd is reported as > 4 mM (inactive).
In the case of Cc1ccc(C(=O)N2CCOCC2)cc1Cl, the Kd is reported as > 4 mM (inactive).
In the case of C[C@@H](N)[C@@H](O)c1ccccc1, the Kd is reported as > 4 mM (inactive).
O=C1CNC(=O)/C1=C/c1ccc(O)cc1 was tested, and the Kd was > 4 mM (inactive).
Cc1cc(N)n(-c2ccccc2)n1 was tested, and the Kd was > 4 mM (inactive).
In the case of CC(=O)NC(C)C12CC3CC(CC(C(=O)O)(C3)C1)C2 (stereo not given), the Kd is reported as > 4 mM (inactive).
In the case of COC(=O)Cc1cc(=O)n(-c2nc3ccccc3s2)[nH]1, the Kd is reported as > 4 mM (inactive).
With NC1=NC(=O)C(Cc2ccccc2)S1 (stereo not given) the Kd was > 4 mM (inactive).
With COc1ccc2c(c1)O[C@H]1c3ccc(OC)cc3OC[C@@H]21 the Kd was > 4 mM (inactive).
For O=C(CSc1ncn[nH]1)c1ccccc1, the Kd was > 4 mM (inactive).
In the case of CC(=O)c1sc2nc(N)nn2c1C, the Kd is reported as > 4 mM (inactive).
For CS(=O)(=O)N1CCN(C(=O)Cc2cccs2)CC1, the Kd was > 4 mM (inactive).
For O=C1CCNc2ccccc2N1, the Kd was > 4 mM (inactive).
For O=C(c1ccc(F)cc1)N1CCOCC1, the Kd was > 4 mM (inactive).
For COc1ccc(-c2cc(=O)c3c(O)cc(O[C@H]4O[C@H](CO[C@@H]5O[C@@H](C)[C@H](O)[C@@H](O)[C@H]5O)[C@@H](O)[C@H](O)[C@H]4O)cc3o2)cc1, the Kd was > 4 mM (inactive).
For CC(=O)O[C@@H]1CC2C(C)(C)C(=O)C3OC3[C@]2(C)C2CC[C@@]3(C)[C@H](c4ccoc4)OC(=O)C4OC43[C@@]21C (stereo not given in full), the Kd was > 4 mM (inactive).
In the case of Nc1c(Nc2ccccc2)c2ccccc2oc1=O, the Kd is reported as > 4 mM (inactive).
With O=C(O)C1CC(=O)N(C2Cc3ccccc3C2)C1 (stereo not given) the Kd was > 4 mM (inactive).
c1ccc(NCc2nc(-c3ccccc3)no2)cc1 was tested, and the Kd was > 4 mM (inactive).
For CCCn1cnc2sc(C(N)=O)c(C)c2c1=O, the Kd was > 4 mM (inactive).
Cc1ccc2nc(SCC(=O)O)nc(C)c2c1 was tested, and the Kd was > 4 mM (inactive).
For CC(C)C1COc2cc3oc(=O)ccc3cc2O1 (stereo not given), the Kd was > 4 mM (inactive).
In the case of Cc1ccc(-c2nc(N)n(C(=O)c3cccnc3)n2)cc1, the Kd is reported as > 4 mM (inactive).
Nc1cccc(S(N)(=O)=O)c1 was tested, and the Kd was > 4 mM (inactive).
Nc1ccc(F)cc1F was tested, and the Kd was > 4 mM (inactive).
For Nc1ncnc2nc[nH]c12, the Kd was > 4 mM (inactive).
For Cc1cc(C(=O)c2c(C)nn(C)c2Cl)n(C)n1, the Kd was > 4 mM (inactive).
Cc1nc2ccccc2c(=O)n1CCCn1ccnc1 was tested, and the Kd was > 4 mM (inactive).
In the case of Nc1nc2n(c1C(=O)c1ccccc1)CCC2, the Kd is reported as > 4 mM (inactive).
For Cn1ccc(NC(=S)NC2CCCC2)n1, the Kd was > 4 mM (inactive).
In the case of Cc1nc2ccc(C(=O)O)cc2[nH]1, the Kd is reported as > 4 mM (inactive).
For CCCNC(=O)CSc1nnc(C)s1, the Kd was > 4 mM (inactive).
For COc1ccc(-c2cc(=O)c3c(O)cc(O[C@@H]4O[C@H](CO[C@H]5O[C@H](C)[C@@H](O)[C@H](O)[C@@H]5O)[C@@H](O)[C@H](O)[C@H]4O)cc3o2)cc1O, the Kd was > 4 mM (inactive).
With C[N+](C)(C)CC(O)CC(=O)O (stereo not given) the Kd was > 4 mM (inactive).
In the case of Cc1cc(NC(=O)Cc2c(F)cccc2Cl)no1, the Kd is reported as > 4 mM (inactive).
For NC(=O)c1ccc(C(N)=O)cc1, the Kd was > 4 mM (inactive).
In the case of Cc1cccnc1NC1=NCC(C)S1 (stereo not given), the Kd is reported as > 4 mM (inactive).
With Cc1cc2ncn(S(=O)(=O)N3CCOCC3)c2cc1C the Kd was > 4 mM (inactive).
NC(=O)C1CCN(c2nccc(C(F)(F)F)n2)CC1 was tested, and the Kd was > 4 mM (inactive).
For O=S(=O)(N1CCOCC1)n1nnc2ccccc21, the Kd was > 4 mM (inactive).
With CN1CCOc2cc(C(=O)O)ccc21 the Kd was > 4 mM (inactive).
For CCOC(=O)c1cnc2sccn2c1=O, the Kd was > 4 mM (inactive).
In the case of COc1ccc(Cc2nnc3c4cnn(C)c4ncn23)cc1, the Kd is reported as > 4 mM (inactive).
In the case of Nc1[nH]c(=S)[nH]c(=O)c1-c1ccccc1, the Kd is reported as > 4 mM (inactive).
For O=C(O)c1cnn2ccccc12, the Kd was > 4 mM (inactive).
For COc1ccc(NC(=O)CCCC(=O)O)c(OC)c1, the Kd was > 4 mM (inactive).
COC1(C)CCC2OC2(C)CCC2C1CC2(C)C (stereo not given) was tested, and the Kd was > 4 mM (inactive).
With CC(=O)O[C@H]1C[C@@H](OC(C)=O)C(C)(C)C2C[C@@H](OC(C)=O)[C@]3(C)C(CC[C@@]4(C)[C@H](c5ccoc5)C(=O)[C@H]5O[C@]543)[C@]21C (stereo not given in full) the Kd was > 4 mM (inactive).
In the case of O=C1NC(=O)C(C2SC(=O)NC2=O)S1 (stereo not given), the Kd is reported as > 4 mM (inactive).
With COC(=O)c1ccc(N2CCOCC2)nc1 the Kd was > 4 mM (inactive).
With Cn1c(=O)c2c(n(C)c1=O)=NC1(CCCCC1)N=2 the Kd was > 4 mM (inactive).
With CC1=C2[C@H]3OC(=O)[C@@H](C)[C@@H]3CC[C@@]2(C)C=CC1=O the Kd was > 4 mM (inactive).
In the case of Nc1ncnc(Nc2ccccc2C(F)(F)F)n1, the Kd is reported as > 4 mM (inactive).
In the case of COCCn1c(SC)nc2c1c(=O)[nH]c(=O)n2C, the Kd is reported as > 4 mM (inactive).
With CC1CCC2(OC1)OC1CC3C4CC[C@H]5C[C@@H](O)CC[C@]5(C)C4CC(=O)[C@]3(C)C1C2C (stereo not given in full) the Kd was > 4 mM (inactive).
In the case of FC(F)(F)c1nnc2ccc(N3CCOCC3)nn12, the Kd is reported as > 4 mM (inactive).
Brc1cccc(-c2nnco2)c1 was tested, and the Kd was > 4 mM (inactive).
With CC1(C)C(=O)C=C[C@@]2(C)C1=C(O)C(=O)[C@]1(C)C2CC[C@@]2(C)[C@H](c3ccoc3)C[C@H]3O[C@]321 (stereo not given in full) the Kd was > 4 mM (inactive).
CCOC(=O)C1CCC(=O)c2cccn21 (stereo not given) was tested, and the Kd was > 4 mM (inactive).
In the case of COc1cc2nc(-c3cccs3)oc(=O)c2cc1OC, the Kd is reported as > 4 mM (inactive).
CC(=O)O[C@@H]1CC2C(C)(C)[C@H](O)C=C[C@]2(C)C2CC[C@@]3(C)[C@H](c4ccoc4)OC(=O)C4OC43[C@@]21C (stereo not given in full) was tested, and the Kd was > 4 mM (inactive).
CC(=O)O[C@@H]1CC2C(C)(C)C(=O)[C@@H]3O[C@@H]3[C@]2(C)C2CC[C@]3(C)C(=CC(=O)O[C@H]3c3ccoc3)[C@@]21C (stereo not given in full) was tested, and the Kd was > 4 mM (inactive).
With NC(=O)c1cccc2c(=O)oc3ccccc3c12 the Kd was > 4 mM (inactive).
In the case of CCOC(=O)C1CCN(Cc2ccccc2)CC1, the Kd is reported as > 4 mM (inactive).
For O=C(O)C1CC(=O)N(Cc2ccco2)C1 (stereo not given), the Kd was > 4 mM (inactive).
With CC(=O)Nc1ccc(NC(=O)c2ccnn2C)cc1 the Kd was > 4 mM (inactive).
With Nc1cccc(NC(=O)c2cccs2)c1 the Kd was > 4 mM (inactive).
With O=C(NCc1ccco1)c1cccc(F)c1 the Kd was > 4 mM (inactive).
In the case of O=[n+]1cc(-c2ccccc2)n([O-])c2c1CCC2, the Kd is reported as > 4 mM (inactive).
For Cn1c(=O)c2[nH]cnc2n(C)c1=O, the Kd was > 4 mM (inactive).
With C=C1C([C@]2(C)C(CC(=O)OC)[C@@](C)(COC(C)=O)OC(=O)C[C@@H]2OC(C)=O)[C@@H](OC=O)[C@H](OC(=O)C(O)C(C)CC)[C@@]2(C)[C@H](c3ccoc3)CC(=O)C12O (stereo not given in full) the Kd was > 4 mM (inactive).
With CN1CCCn2c1nc1c2c(=O)[nH]c(=O)n1C the Kd was > 4 mM (inactive).
COc1cc(-c2coc3cc(O[C@@H]4O[C@H](CO)[C@@H](O)[C@H](O)[C@H]4O)c(OC)c(O)c3c2=O)cc(O)c1OC was tested, and the Kd was > 4 mM (inactive).
In the case of CC(=O)Nc1ccc(N2C(=O)C=CC2=O)cc1C, the Kd is reported as > 4 mM (inactive).
In the case of O=C(O)c1ccc(-n2cncn2)cc1, the Kd is reported as > 4 mM (inactive).
CC1=CCCC2C1(C)CCC(C)C2(C)CC/C(C)=C/C[n+]1cn(C)c2c(N)ncnc21 (stereo not given) was tested, and the Kd was > 4 mM (inactive).
For O=C(Nc1cccc(Cl)c1)c1cnn2cccnc12, the Kd was > 4 mM (inactive).
With CC(C)c1ccc2c(c1)CCC1C(C)(C(N)=O)CCCC21C (stereo not given) the Kd was > 4 mM (inactive).
For CC(=O)O[C@@H]1C[C@@]2(C)[C@H](c3ccoc3)C[C@H]3O[C@]32[C@]2(C)C(=O)C(O)=C3C(C)(C)C(=O)C=C[C@]3(C)C12 (stereo not given in full), the Kd was > 4 mM (inactive).
With CC(C)(C)c1ccc(SCC(N)=O)cc1 the Kd was > 4 mM (inactive).
CC12CN(CC#N)CC(C)(CN(CC#N)C1)C2=O was tested, and the Kd was > 4 mM (inactive).
In the case of O=C(O)c1cccc(N2C(=O)C3CC=CCC3C2=O)c1 (stereo not given), the Kd is reported as > 4 mM (inactive).
For COC(=O)c1nc(-c2ccccc2)oc1N(C)C, the Kd was > 4 mM (inactive).
For COc1ccc2c(c1)O[C@@H]1COc3cc(OC)c(OC)cc3[C@@H]1C2=O, the Kd was > 4 mM (inactive).
For Oc1ccc(C(=S)N2CCOCC2)cc1, the Kd was > 4 mM (inactive).
COc1ccc(/C=C2/C(=O)N=C(N)N2C)cc1OC was tested, and the Kd was > 4 mM (inactive).
With Cc1cc(C)nc(N(C#N)Cc2ccccc2)n1 the Kd was > 4 mM (inactive).
CC(=O)CC1CCCCN1 (stereo not given) was tested, and the Kd was > 4 mM (inactive).
CCOC(=O)c1c(C)nc2ccccn12 was tested, and the Kd was > 4 mM (inactive).
With COC(=O)c1cc(-c2c[nH]c3ccccc23)n[nH]1 the Kd was > 4 mM (inactive).
For CC(C)(C)CC(=O)NNC(=O)c1cnccn1, the Kd was > 4 mM (inactive).
In the case of COc1ccc(-c2oc3cc(O[C@H]4O[C@H](CO)[C@@H](O)[C@H](O)[C@H]4O)c(OC)c(O)c3c(=O)c2OC)cc1O, the Kd is reported as > 4 mM (inactive).
NCC(N)C(=O)c1ccccc1 (stereo not given) was tested, and the Kd was > 4 mM (inactive).
Cc1c(C(=O)N2CCOCC2)oc2c1C(=O)CC(C)(C)C2 was tested, and the Kd was > 4 mM (inactive).
In the case of COc1ccc(C)cc1-n1c(-c2ccncc2)n[nH]c1=S, the Kd is reported as > 4 mM (inactive).
For NC[C@H]1O[C@H](O[C@H]2[C@H](O)[C@@H](O[C@H]3O[C@H](CO)[C@@H](O)[C@H](N)[C@H]3O)[C@H](N)C[C@@H]2N)[C@H](N)[C@@H](O)[C@@H]1O, the Kd was > 4 mM (inactive).
